Assay results published in patent US20070082880A1 (priority 2005, published 2007).

The compounds below were run against T1, human PKCθ full length enzyme (Homo sapiens, UniProt Q04759) (assay: PKCθ IMAP Assay). Conditions: average value when one or more samples were tested; ATP 6 uM, PKCθ 1 nM.
T1 construct: human PKCθ full length enzyme (Panvera Catalog No. P2996); purchased Panvera P2996
Type: biochemical
Procedure, shortened: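 Full-length human PKCθ (1 nM final) with 6 uM ATP and 100 nM 5FAM-labelled peptide, 5% DMSO, 3.0 mM DTT in reaction buffer. 25 min at room temperature; IMAP bead binding 20 min, fluorescence polarization read. Compounds 2:1 serially diluted; no-ATP and no-enzyme wells as controls.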

T1 sequence (Q04759 whole entry): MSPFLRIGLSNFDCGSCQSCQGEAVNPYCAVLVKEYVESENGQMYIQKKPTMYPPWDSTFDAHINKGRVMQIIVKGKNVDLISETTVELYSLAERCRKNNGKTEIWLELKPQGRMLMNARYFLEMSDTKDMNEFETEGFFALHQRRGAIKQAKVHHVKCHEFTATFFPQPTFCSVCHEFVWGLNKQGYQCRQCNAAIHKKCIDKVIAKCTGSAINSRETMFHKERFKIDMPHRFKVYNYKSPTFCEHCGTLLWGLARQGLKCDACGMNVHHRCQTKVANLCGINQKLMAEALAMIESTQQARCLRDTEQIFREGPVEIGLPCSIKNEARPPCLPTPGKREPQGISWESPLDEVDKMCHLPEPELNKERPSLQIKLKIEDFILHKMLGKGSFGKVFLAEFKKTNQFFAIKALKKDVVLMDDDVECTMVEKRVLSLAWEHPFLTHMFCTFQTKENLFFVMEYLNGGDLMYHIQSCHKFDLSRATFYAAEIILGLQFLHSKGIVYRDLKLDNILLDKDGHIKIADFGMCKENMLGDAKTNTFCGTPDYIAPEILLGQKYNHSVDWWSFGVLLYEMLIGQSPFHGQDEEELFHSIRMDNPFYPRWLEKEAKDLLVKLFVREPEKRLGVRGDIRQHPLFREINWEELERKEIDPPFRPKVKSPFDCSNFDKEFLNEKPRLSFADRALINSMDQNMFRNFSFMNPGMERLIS

IC50 | SMILES
23 nM | Cc1c(Nc2c(C#N)cnc3sc(/C=C/CN4CCCC4)cc23)ccc2[nH]ccc12 [Compound 276, 4-[(4-methyl-1H-indol-5-yl)amino]-2-[(1E)-3-pyrrolidin-1-ylprop-1-en-1-yl]thieno[2,3-b]pyridine-5-carbonitrile]
304 nM | CN1CCN(C/C=C/c2cc3c(Nc4ccc5[nH]ccc5c4)c(C#N)cnc3s2)CC1 [Compound 277, 4-(1H-indol-5-ylamino)-2-[(1E)-3-(4-methylpiperazin-1-yl)prop-1-en-1-yl]thieno[2,3-b]pyridine-5-carbonitrile]
12 nM | Cc1c(Nc2c(C#N)cnc3sc(/C=C/CN4CCN(C)CC4)cc23)ccc2[nH]ccc12 [Compound 278, 4-[(4-methyl-1H-indol-5-yl)amino]-2-[(1E)-3-(4-methylpiperazin-1-yl)prop-1-en-1-yl]thieno[2,3-b]pyridine-5-carbonitrile]
17 nM | Cc1c(Nc2c(C#N)cnc3sc(/C=C/CN4CCN(C)CC4)c(C)c23)ccc2[nH]ccc12 [Compound 279, 3-methyl-4-[(4-methyl-1H-indol-5-yl)amino]-2-[(1E)-3-(4-methylpiperazin-1-yl)prop-1-en-1-yl]thieno[2,3-b]pyridine-5-carbonitrile]
23 nM | CCOC(=O)/C=C/c1cc2c(Nc3ccc4[nH]ccc4c3C)c(C#N)cnc2s1 [Compound 282, ethyl (2E)-3-{5-cyano-4-[(4-methyl-1H-indol-5-yl)amino]thieno[2,3-b]pyridin-2-yl}acrylate]
314 nM | Cc1c(Nc2c(C#N)cnc3sc(/C=C/C(=O)OC(C)(C)C)cc23)ccc2[nH]ccc12 [Compound 286, tert-butyl (2E)-3-{5-cyano-4-[(4-methyl-1H-indol-5-yl)amino]thieno[2,3-b]pyridin-2-yl}acrylate]
130 nM | N#Cc1cnc2sc(/C=C/C(=O)N3CCCC3)cc2c1Nc1ccc2[nH]ccc2c1 [Compound 288, 4-(1H-indol-5-ylamino)-2-[(1E)-3-oxo-3-pyrrolidin-1-ylprop-1-en-1-yl]thieno[2,3-b]pyridine-5-carbonitrile]
2070 nM | N#Cc1cnc2sc(/C=C/C(=O)NCCO)cc2c1Nc1ccc2[nH]ccc2c1 [Compound 289, (2E)-3-[5-cyano-4-(1H-indol-5-ylamino)thieno[2,3-b]pyridin-2-yl]-N-(2-hydroxyethyl)acrylamide]
330 nM | CN1CCN(C(=O)/C=C/c2cc3c(Nc4ccc5[nH]ccc5c4)c(C#N)cnc3s2)CC1 [Compound 290, 4-(1H-indol-5-ylamino)-2-[(1E)-3-(4-methylpiperazin-1-yl)-3-oxoprop-1-en-1-yl]thieno[2,3-b]pyridine-5-carbonitrile]
105 nM | CC1CCCN1C(=O)/C=C/c1cc2c(Nc3ccc4[nH]ccc4c3)c(C#N)cnc2s1 (stereo not drawn) [Compound 291, 4-(1H-indol-5-ylamino)-2-[(1E)-3-(2-methylpyrrolidin-1-yl)-3-oxoprop-1-en-1-yl]thieno[2,3-b]pyridine-5-carbonitrile]
183 nM | N#Cc1cnc2sc(/C=C/C(N)=O)cc2c1Nc1ccc2[nH]ccc2c1 [Compound 292, (2E)-3-[5-cyano-4-(1H-indol-5-ylamino)thieno[2,3-b]pyridin-2-yl]acrylamide]
33600 nM | N#Cc1cnc2sc(/C=C/C(=O)Nc3cccnc3)cc2c1Nc1ccc2[nH]ccc2c1 [Compound 293, (2E)-3-[5-cyano-4-(1H-indol-5-ylamino)thieno[2,3-b]pyridin-2-yl]-N-pyridin-3-ylacrylamide]
4 nM | Cc1c(Nc2c(C#N)cnc3sc(/C=C/C(=O)N4CCCC4)cc23)ccc2[nH]ccc12 [Compound 294, 4-[(4-methyl-1H-indol-5-yl)amino]-2-[(1E)-3-oxo-3-pyrrolidin-1-ylprop-1-en-1-yl]thieno[2,3-b]pyridine-5-carbonitrile]
43 nM | Cc1c(Nc2c(C#N)cnc3sc(/C=C/C(=O)N4CCN(C)CC4)cc23)ccc2[nH]ccc12 [Compound 295, 4-[(4-methyl-1H-indol-5-yl)amino]-2-[(1E)-3-(4-methylpiperazin-1-yl)-3-oxoprop-1-en-1-yl]thieno[2,3-b]pyridine-5-carbonitrile]
17 nM | Cc1c(Nc2c(C#N)cnc3sc(/C=C/C(=O)Nc4cccnc4)cc23)ccc2[nH]ccc12 [Compound 296, (2E)-3-{5-cyano-4-[(4-methyl-1H-indol-5-yl)amino]thieno[2,3-b]pyridin-2-yl}-N-pyridin-3-ylacrylamide]
12 nM | Cc1c(Nc2c(C#N)cnc3sc(/C=C/C(N)=O)cc23)ccc2[nH]ccc12 [Compound 297, (2E)-3-{5-cyano-4-[(4-methyl-1H-indol-5-yl)amino]thieno[2,3-b]pyridin-2-yl}acrylamide]
48 nM | Cc1c(Nc2c(C#N)cnc3sc(/C=C/C(=O)N4CCCCC4)cc23)ccc2[nH]ccc12 [Compound 298, 4-[(4-methyl-1H-indol-5-yl)amino]-2-[(1E)-3-oxo-3-piperidin-1-ylprop-1-en-1-yl]thieno[2,3-b]pyridine-5-carbonitrile]

IC50 | SMILES
32 nM | Cc1c(Nc2c(C#N)cnc3sc(/C=C/C(=O)N4CCC[C@H]4CN4CCCC4)cc23)ccc2[nH]ccc12 [Compound 299, 4-[(4-methyl-1H-indol-5-yl)amino]-2-{(1E)-3-oxo-3-[(2S)-2-(pyrrolidin-1-ylmethyl)pyrrolidin-1-yl]prop-1-en-1-yl}thieno[2,3-b]pyridine-5-carbonitrile]
175 nM | Cc1c(Nc2c(C#N)cnc3sc(/C=C/C(=O)N4CC[C@@H](N(C)C)C4)cc23)ccc2[nH]ccc12 [Compound 300, 2-{(1E)-3-[(3R)-3-(dimethylamino)pyrrolidin-1-yl]-3-oxoprop-1-en-1-yl}-4-[(4-methyl-1H-indol-5-yl)amino]thieno[2,3-b]pyridine-5-carbonitrile]
171 nM | Cc1c(Nc2c(C#N)cnc3sc(/C=C/C(=O)N4CC[C@H](N(C)C)C4)cc23)ccc2[nH]ccc12 [Compound 301, 2-{(1E)-3-[(3S)-3-(dimethylamino)pyrrolidin-1-yl]-3-oxoprop-1-en-1-yl}-4-[(4-methyl-1H-indol-5-yl)amino]thieno[2,3-b]pyridine-5-carbonitrile]
4 nM | Cc1c(Nc2c(C#N)cnc3sc(/C=C/C(=O)N4CCCC4)c(C)c23)ccc2[nH]ccc12 [Compound 302, 3-methyl-4-[(4-methyl-1H-indol-5-yl)amino]-2-[(1E)-3-oxo-3-pyrrolidin-1-ylprop-1-en-1-yl]thieno[2,3-b]pyridine-5-carbonitrile]
111 nM | Cc1c(Nc2c(C#N)cnc3sc(/C=C/C(=O)Nc4ccccc4)cc23)ccc2[nH]ccc12 [Compound 303, (2E)-3-{5-cyano-4-[(4-methyl-1H-indol-5-yl)amino]thieno[2,3-b]pyridin-2-yl}-N-phenylacrylamide]
43 nM | Cc1c(Nc2c(C#N)cnc3sc(/C=C/C(=O)Nc4ccncc4)cc23)ccc2[nH]ccc12 [Compound 304, (2E)-3-{5-cyano-4-[(4-methyl-1H-indol-5-yl)amino]thieno[2,3-b]pyridin-2-yl}-N-pyridin-4-ylacrylamide]
2 nM | Cc1c(Nc2c(C#N)cnc3sc(/C=C/C(=O)N(C)C)cc23)ccc2[nH]ccc12 [Compound 305, (2E)-3-{5-cyano-4-[(4-methyl-1H-indol-5-yl)amino]thieno[2,3-b]pyridin-2-yl}-N,N-dimethylacrylamide]
2 nM | CCN(CC)C(=O)/C=C/c1cc2c(Nc3ccc4[nH]ccc4c3C)c(C#N)cnc2s1 [Compound 306, (2E)-3-{5-cyano-4-[(4-methyl-1H-indol-5-yl)amino]thieno[2,3-b]pyridin-2-yl}-N,N-diethylacrylamide]
15 nM | CCNC(=O)/C=C/c1cc2c(Nc3ccc4[nH]ccc4c3C)c(C#N)cnc2s1 [Compound 307, (2E)-3-{5-cyano-4-[(4-methyl-1H-indol-5-yl)amino]thieno[2,3-b]pyridin-2-yl}-N-ethylacrylamide]
48 nM | COCCNC(=O)/C=C/c1cc2c(Nc3ccc4[nH]ccc4c3C)c(C#N)cnc2s1 [Compound 308, (2E)-3-{5-cyano-4-[(4-methyl-1H-indol-5-yl)amino]thieno[2,3-b]pyridin-2-yl}-N-(2-methoxyethyl)acrylamide]
53 nM | Cc1c(Nc2c(C#N)cnc3sc(/C=C/C(=O)N4CCOCC4)cc23)ccc2[nH]ccc12 [Compound 309, 4-[(4-methyl-1H-indol-5-yl)amino]-2-[(1E)-3-morpholin-4-yl-3-oxoprop-1-en-1-yl]thieno[2,3-b]pyridine-5-carbonitrile]
41 nM | Cc1c(Nc2c(C#N)cnc3sc(/C=C/C(=O)N4CCC(O)C4)cc23)ccc2[nH]ccc12 (stereo not drawn) [Compound 310, 2-[(1E)-3-(3-hydroxypyrrolidin-1-yl)-3-oxoprop-1-en-1-yl]-4-[(4-methyl-1H-indol-5-yl)amino]thieno[2,3-b]pyridine-5-carbonitrile]
88 nM | Cc1c(Nc2c(C#N)cnc3sc(/C=C/C(=O)N4CCNCC4)cc23)ccc2[nH]ccc12 [Compound 311, 4-[(4-methyl-1H-indol-5-yl)amino]-2-[(1E)-3-oxo-3-piperazin-1-ylprop-1-en-1-yl]thieno[2,3-b]pyridine-5-carbonitrile]
151 nM | Cc1c(Nc2c(C#N)cnc3sc(/C=C/C(=O)N(C)CCN(C)C)cc23)ccc2[nH]ccc12 [Compound 312, (2E)-3-{5-cyano-4-[(4-methyl-1H-indol-5-yl)amino]thieno[2,3-b]pyridin-2-yl}-N-[2-(dimethylamino)ethyl]-N-methylacrylamide]
104 nM | Cc1c(Nc2c(C#N)cnc3sc(/C=C/C(=O)NN(C)C)cc23)ccc2[nH]ccc12 [Compound 313, (2E)-3-{5-cyano-4-[(4-methyl-1H-indol-5-yl)amino]thieno[2,3-b]pyridin-2-yl}-N′,N′-dimethylacrylohydrazide]
375 nM | Cc1c(Nc2c(C#N)cnc3sc(/C=C/C(=O)NN4CCCC4)cc23)ccc2[nH]ccc12 [Compound 314, (2E)-3-{5-cyano-4-[(4-methyl-1H-indol-5-yl)amino]thieno[2,3-b]pyridin-2-yl}-N-pyrrolidin-1-ylacrylamide]
